Laboratory results taken from patent publication US12251366B1, “Sulforaphane-cysteine for wound healing in diabetic subjects” (KUWAIT UNIVERSITY, priority 2024, dated 2025).

Test system: TNF-α
Experiment: Cytokine ELISA, LPS-stimulated peritoneal macrophages (TNF-α)
Assay type: cell-based, mouse
Conditions: LPS-stimulated macrophages, mouse model of type 2 diabetes
Source text: This was exemplified in the current study by the ability of SFN-CYS to inhibit lipopolysaccharide (LPS)-induced peritoneal macrophages and bone marrow-derived macrophages to produce tumor necrosis factor-α (TNF-α) and interlukin-6 (IL-6). TNF-α and IL-6 are two of the major inflammatory mediators that contribute to the pathogenesis of low-grade inflammation; a phenomenon which is commonly associated with the diabetic state. […] Pre-treatment with SFN-Cys inhibited the expression of LPS-induced TNF-α and IL-6 protein at a therapeutic dose of 1.5 μM (FIGS. 1A and 1B).
Thioglycollate-elicited mouse peritoneal macrophages were prepared from C57BL (8-10 weeks old) and cultured in RPMI 1640 with 10% (v/v) FCS Bone marrow-derived macrophages were generated in RPMI medium containing M-CSF (10 ng/mL) according to previously published procedure. For cytokine ELISA assay, cells were seeded at 5×10^5 in 12-well plates, whereas for mRNA expression, the cells were seeded at […]. LPS and used at a dose of 100 ng/mL. Similarly. SFN-Cys was used at a concentration of 1.5 umol/L.
For cytokine ELISA, supernatants from cultured macrophages were collected in response to treatment with SFN and SFN-Cys for 6 h. The total TNF-α and TL-6 were measured by enzyme-linked immunosorbent assay (ELISA) using kits (R&D system, USA) according to the manufacturer's protocols.

C[S+]([O-])CCCCN=C=S (stereo not shown) [SFN, Sulforaphane]
anti-inflammatory activity (overall, SFN-Cys compared with SFN): exhibited anti-inflammatory and antioxidant activities
